According to article PMC7463537, “Synthesis and Evaluation of Antimicrobial and Cytotoxic Activity of Oxathiine-Fused Quinone-Thioglucoside Conjugates of Substituted 1,4-Naphthoquinones” (Molecules, 2020):
Values after ≈ are worked out from the molar mass of the structure shown. Where two headings read alike, the source gives them in different places. One block for each compound: values may come before it.

Tests used:
[1] = test system: S. aureus ATCC 21027; experiment: Agar diffusion method, S. aureus; type: cell-based, Staphylococcus aureus; conditions: Staphylococcus aureus, read-out: Diameter of Zone Inhibition, S. aureus; for zone of inhibition at 100 µg/disc: ATCC21027, 24 h, 100 µg/well, 24 h, incl. 7 mm well
Method: (§1) Elyakov Pacific Institute of Bioorganic Chemistry, Far East Branch, Russian Academy of Sciences. Test substances were dissolved in DMSO at concentrations of 1.0, 0.1, and 0.01 mg/mL. All strains were grown on trypticase-soy agar TSA (BBL) at 37 °C. […] After incubation of the dishes at 37 °C for 24 h (for bacteria) and 48 h (for the fungus) at 28 °C, the diameters of the growth inhibition zones of pathogenic microorganisms (mm) were measured, including the diameter of the wells. Commercial antibacterial drugs (vancomicin and gentamicin) and antifungal (clotrimazol) drugs were used as positive controls.

[2] = test system: B. cereus ATCC 10702; experiment: Agar diffusion method, B. cereus; type: cell-based, Bacillus cereus; parameters: key to Diameter of Zone Inhibition, B. cereus: Zones within 20–40 mm mean strong antibiotic activity; zones up to 20 mm—moderate; ≤10 mm—weak; +—insignificant; conditions: for zone of inhibition at 100 µg/disc: Bacillus cereus, ATCC10702, 24 h, read-out: Diameter of Zone Inhibition, B. cereus
Method: as §1

[3] = test system: P. aeruginosa ATCC 27853; experiment: Agar diffusion method, P. aeruginosa; type: cell-based, Pseudomonas aeruginosa; conditions: for zone of inhibition at 100 µg/disc: Pseudomonas aeruginosa, ATCC27853, 100 µg/well, read-out: Diameter of Zone Inhibition, P. aeruginosa
Method: as §1

[4] = test system: E. coli K-12; experiment: Agar diffusion method, E. coli; type: cell-based, Escherichia coli; conditions: Escherichia coli, K12; 100 µg/well; read-out: Diameter of Zone Inhibition, E. coli
Method: as §1

[5] = test system: C. albicans KMM 453; experiment: Agar diffusion method, C. albicans; type: cell-based; conditions: Candida albicans, KMM453, 48 h, 100 µg/well, 48 h at 28 °C; read-out: Diameter of Zone Inhibition, C. albicans
Method: as §1

[6] = Solubility in DMSO; type: physicochemical; conditions: did not allow measurement of cytotoxic activity
[7] = test system: human cervical cancer (HeLa); experiment: Cytotoxicity, MTT assay, HeLa cells; conditions: for EC50: 24 h, read-out: Cytotoxicity (EC50), HeLa; for Selectivity Index (SI), HeLa: SI = EC50 (Jb6 Cl 41-5a normal cells)/EC50 (tumor cells)
[8] = test system: mouse neuroblastoma (Neuro 2a); experiment: Cytotoxicity, MTT assay, Neuro 2a cells; conditions: for EC50: 24 h, read-out: Cytotoxicity (EC50), Neuro 2a; for Selectivity Index (SI), Neuro-2a: SI = EC50 (Jb6 Cl 41-5a normal cells)/EC50 (tumor cells)
[9] = Cytotoxicity, MTT assay, Jb6 Cl 41-5a normal epithelial cells; conditions: mouse, Jb6 Cl 41-5a normal epithelial cells
[10] = Cytotoxicity, statements of the text over all tested cell lines; conditions: human, mouse
[11] = test system: mouse ascites Ehrlich carcinoma; experiment: Cytotoxicity, nonspecific esterase (FDA) assay, ascites Ehrlich carcinoma cells; conditions: for EC50: 24 h, read-out: Cytotoxicity (EC50), Ascites Ehrlich Carcinoma; for Selectivity Index (SI), Ascitic Ehrlich Carcinoma: SI = EC50 (Jb6 Cl 41-5a normal cells)/EC50 (tumor cells)
[12] = test system: Gram-positive bacteria (S. aureus, B. cereus); experiment: Agar diffusion method, Gram-positive strains; type: cell-based, Staphylococcus aureus, Bacillus cereus; conditions: for zone of inhibition at 100 µg/disc: Staphylococcus aureus, 100 µg/well, read-out: Antimicrobial activity / inhibition zone diameter, Gram-positive bacteria
Method: as §1

[13] = test system: S. aureus ATCC 21027; experiment: Minimum inhibitory concentration, broth microdilution; type: cell-based, Staphylococcus aureus; conditions: for Selectivity index (SI) against S. aureus: SI = EC50 (normal Jb6 Cl 41-5a cells)/MIC; for MIC: Staphylococcus aureus, ATCC21027, broth microdilution, 24 h, read-out: Minimum inhibitory concentration (MIC) against S. aureus
Method: Stocks of substances were prepared in DMSO at a concentration of 10 mM. All studied compounds were tested in concentrations from 1.5 μM to 100 μM using twofold dilution. All tested compounds were add to the wells of the plates in a volume of 20 μL diluted in PBS (DMSO concentration < 1%). The bacterial culture of S. aureus ATCC 21027 (Collection of Marine Microorganisms PIBOC FEB RAS) was cultured in a Petri dish at 37 °C for 24 h on solid medium with the following composition; pepton—5.0 g/L, K2HPO4—0.2 g/L, glucose—1.0 g/L, MgSO4—0.05 g/L, yeast extract—1 g/L, agar—16.0 g/L, and distilled water—1.0 L. The pH of the medium was adjusted to 7.2–7.4 with NaOH solution.
The antimicrobial activity of the compounds was determined by the minimum inhibitory concentration (MIC) according to the method adopted by the Clinical and Laboratory Standards Institute (CLSI). Methods for dilution antimicrobial susceptibility tests for bacteria that grow aerobically followed the approved standard—tenth edition. CLSI document M07-A10, PA: Clinical and Laboratory Standards Institute; 2015, with a slight modification of the medium. The assays were performed in 96-well microplates in appropriate broth (pepton—5.0 g/L, K2HPO4—0.2 g/L, glucose—1.0 g/L, MgSO4—0.05 g/L, yeast extract—1 g/L, casein hydrolyzate—2.5 g/L, distilled water—1L). […] The MIC value is defined as the lowest concentration of compounds resulting in the complete inhibition of bacterial growth by measuring the absorbance at 600 nm with a microplate reader (BioTek, Winooski, Vt, USA). All experiments were performed twice in triplicate. Gentamicin was used as a positive control in concentration 1 mg/mL; 1% DMSO solution in PBS as a negative. The selectivity index for S. aureus has been defined as the ratio of EC50 for normal cells and the MIC value for the bacterial culture (SI = EC50/MIC).

[14] = test system: mouse normal epithelial cell line (JB6 Cl 41-5a); experiment: Cytotoxicity, MTT assay, Jb6 Cl 41-5a normal epithelial cells; conditions: read-out: Cytotoxicity (EC50), Jb6 Cl 41-5a; MTT reagent, 24 h, non-cancer cells
[15] = in vitro; conditions: mouse
[16] = 100 µg/well, 24 h, incl. 7 mm well

melting point: > 350 °C
SMILES: COc1ccc(OC)c2c1C(=O)C1=C(S[C@@H]3O[C@H](CO)[C@H](O)[C@H](O)[C@H]3O1)C2=O [Compound 17b, (2R,3R,4S,4aR,12aS)-3,4-Dihydroxy-2-hydroxymethyl-7,10-dimethoxy-3,4,4a,12a-tetrahydro-2H-naphtho[2,3-b]pyrano[2,3-e][2,5]oxathiine-6,11-dione]
zone of inhibition at 100 µg/disc [1]: 0 mm
Diameter of Zone Inhibition, B. cereus [2, 16]: +
zone of inhibition at 100 µg/disc [3]: 0 mm
zone of inhibition at 100 µg/disc [4]: 0 mm
zone of inhibition at 100 µg/disc [5]: 0 mm
Solubility in DMSO [6]: poor solubility

SMILES: O=C1C2=C(S[C@@H]3O[C@H](CO)[C@@H](O)[C@H](O)[C@H]3O2)C(=O)c2c(O)cccc21 [Compound 19a, (2R,3S,4S,4aR,12aS)-3,4,10-Trihydroxy-2-hydroxymethyl-3,4,4a,12a-tetrahydro-2H-naphtho[2,3-b]pyrano[2,3-e][2,5]oxathiine-6,11-dione]
zone of inhibition at 100 µg/disc [1]: 0 mm
zone of inhibition at 100 µg/disc [2, 16]: 0 mm
zone of inhibition at 100 µg/disc [3]: 0 mm
zone of inhibition at 100 µg/disc [4]: 0 mm
zone of inhibition at 100 µg/disc [5]: 0 mm
EC50 ([7]; Homo sapiens, HeLa): 3700 nM
Selectivity Index (SI), HeLa [7]: 1.5
EC50 ([8]; N2a): 4100 nM
Selectivity Index (SI), Neuro-2a [8]: 1.4
EC50 at 24 h [9]: 5600 nM
EC50 at 24 h [10]: 600 to 900 nM
EC50 ([11]; Mus musculus, Ehrlich): 600 nM
Selectivity Index (SI), Ascitic Ehrlich Carcinoma [11]: 9.3

SMILES: O=C1C2=C(S[C@@H]3O[C@H](CO)[C@H](O)[C@H](O)[C@H]3O2)C(=O)c2c(O)cccc21 [Compound 19b, (2R,3R,4S,4aR,12aS)-3,4,10-Trihydroxy-2-hydroxymethyl-3,4,4a,12a-tetrahydro-2H-naphtho[2,3-b]pyrano-[2,3-e][2,5]oxathiine-6,11-dione]
zone of inhibition at 100 µg/disc [1]: 0 mm
zone of inhibition at 100 µg/disc [2, 16]: 8 ± 2 mm
zone of inhibition at 100 µg/disc [3]: 0 mm
zone of inhibition at 100 µg/disc [4]: 0 mm
zone of inhibition at 100 µg/disc [5]: 0 mm
zone of inhibition at 100 µg/disc [12]: ≤ 10 mm
EC50 ([7]; Homo sapiens, HeLa): 2700 nM
Selectivity Index (SI), HeLa [7]: 0.3
EC50 ([8]; N2a): 2300 nM
Selectivity Index (SI), Neuro-2a [8]: 0.4
EC50 at 24 h [9]: 900 nM
EC50 at 24 h [10]: 600 to 900 nM
EC50 ([11]; Mus musculus, Ehrlich): 700 nM
Selectivity Index (SI), Ascitic Ehrlich Carcinoma [11]: 1.3

MIC [13]: 6.25 µM (≈ 2.1 µg/mL)
melting point: 319 to 321 °C
SMILES: O=C1C2=C(S[C@@H]3OC[C@H](O)[C@H](O)[C@H]3O2)C(=O)c2c(O)cccc21 [Compound 19d, (3S,4S,4aR,12aS)-3,4,10-Trihydroxy-3,4,4a,12a-tetrahydro-2H-naphtho[2,3-b]pyrano[2,3-e][2,5]oxathiine-6,11-dione]
zone of inhibition at 100 µg/disc [1]: 20 ± 3 mm
zone of inhibition at 100 µg/disc [2, 16]: 25 ± 2 mm
zone of inhibition at 100 µg/disc [3]: 0 mm
zone of inhibition at 100 µg/disc [4]: 0 mm
zone of inhibition at 100 µg/disc [5]: 0 mm
Selectivity index (SI) against S. aureus [13]: 0.4
zone of inhibition at 100 µg/disc [12]: 20 to 40 mm
EC50 ([7]; Homo sapiens, HeLa): 1300 nM
Selectivity Index (SI), HeLa [7]: 1.8
EC50 ([8]; N2a): 2200 nM
Selectivity Index (SI), Neuro-2a [8]: 1
EC50 at 24 h [9]: 2300 nM
EC50 ([11]; Mus musculus, Ehrlich): 1100 nM
Selectivity Index (SI), Ascitic Ehrlich Carcinoma [11]: 2.1

MIC [13]: 6.25 µM (≈ 2.1 µg/mL)
SMILES: O=C1C2=C(O[C@@H]3[C@@H](O)[C@@H](O)CO[C@H]3S2)C(=O)c2c(O)cccc21 [Compound 20d, (3S,4S,4aR,12aS)-3,4,7-Trihydroxy-3,4,4a,12a-tetrahydro-2H-naphtho[2,3-b]pyrano[2,3-e][2,5]oxathiine-6,11-dione]
zone of inhibition at 1 µg/disc ([1]; ATCC21027, 1 µg/well): 0 mm
zone of inhibition at 100 µg/disc [1]: 40 ± 2 mm
Diameter of Zone Inhibition, B. cereus ([2]; 1 µg/well): +
zone of inhibition at 100 µg/disc [2, 16]: 30 ± 3 mm
zone of inhibition at 100 µg/disc [3]: 0 mm
zone of inhibition at 100 µg/disc [4]: 0 mm
zone of inhibition at 100 µg/disc [5]: 0 mm
Selectivity index (SI) against S. aureus [13]: 0.1
Antimicrobial activity / inhibition zone diameter, Gram-positive bacteria ([12]; 10 µg/well): comparable with antibiotics vancomicin and gentamicin
Antimicrobial activity, Gram-positive strains ([12]; dilution to 1 µg/well): residual effect
EC50 ([7]; Homo sapiens, HeLa): 400 nM
Selectivity Index (SI), HeLa [7]: 1.75
EC50 ([8]; N2a): 1400 nM
Selectivity Index (SI), Neuro-2a [8]: 0.5
EC50 at 24 h [9]: 700 nM
EC50 ([11]; Mus musculus, Ehrlich): 1200 nM
Selectivity Index (SI), Ascitic Ehrlich Carcinoma [11]: 0.6

SMILES: C=C(C)CCCC1(C)OC(=O)C23CCC4C(=CCC5C(C)(C)C(OC6OCC(OS(=O)(=O)O)C(O)C6OC6OC(C)C(OC7OC(CO)C(O)C(OC8OC(CO)C(O)C(OC)C8O)C7O)C(O)C6OC6OCC(O)C(O)C6O)CCC45C)C2(C)CC(=O)C13 (centres unmarked) [Cucumarioside A2-2, reference compound]
EC50 ([7]; MTT reagent): 42400 nM
EC50 ([8]; MTT reagent): 37500 nM
EC50 [14]: 15100 nM
EC50 ([11]; FDA): 18500 nM

SMILES: O=C1C=CC(=O)c2c(O)cccc21 [Juglone, 5-hydroxy-1,4-naphthoquinone, reference compound]
zone of inhibition at 100 µg/disc [1]: 0 mm
zone of inhibition at 100 µg/disc [2, 16]: 0 mm
Diameter of Zone Inhibition, P. aeruginosa ([3]; 100 µg/well): 12 ± 2 mm
zone of inhibition at 100 µg/disc [3]: < 20 mm
zone of inhibition at 100 µg/disc [4]: 0 mm
MIC [13]: > 100 µM
EC50 [15]: > 100000 nM
EC50 ([7]; Homo sapiens, HeLa): > 100000 nM
EC50 ([8]; N2a): > 100000 nM
EC50 at 24 h [10]: > 100000 nM
EC50 ([11]; Mus musculus, Ehrlich): > 100000 nM
